Experimental data from PubChem BioAssay AID1963840 (Molecular Pharmacology Branch, DTP, NCI, 2024).

System: 695427-040-R-J1-PDC complex spheroid viability
Assay: Anticancer human tumor 695427-040-R-J1-PDC patient-derived colon adenocarcinoma cell line growth inhibition [POLQ]
Details: for IC50: curve of first compound; for viability, T/C: stronger effect = lower value
Procedure, shortened: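 Growth inhibition in 3D: complex spheroids (tumor PDC, HUVEC, MSC) treated with POLQ inhibitor combinations; where Cmax unknown, highest tested concentration 10 microM, except SN-38 at 1 microM.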

[1] = second compound 0.0316 µM, first compound 0.0316 µM
[2] = second compound 0.0316 µM, first compound 0.1 µM
[3] = second compound 0.0316 µM, first compound 0.316 µM
[4] = second compound 0.0316 µM, first compound 1 µM
[5] = second compound 0.0316 µM, first compound 3.16 µM
[6] = second compound 0.0316 µM, first compound 10 µM
[7] = second compound 0.1 µM, first compound 0.0316 µM
[8] = second compound 0.1 µM, first compound 0.1 µM
[9] = second compound 0.1 µM, first compound 0.316 µM
[10] = second compound 0.1 µM, first compound 1 µM
[11] = second compound 0.1 µM, first compound 3.16 µM
[12] = second compound 0.1 µM, first compound 10 µM
[13] = second compound 0.316 µM, first compound 0.0316 µM
[14] = second compound 0.316 µM, first compound 0.1 µM
[15] = second compound 0.316 µM, first compound 0.316 µM
[16] = second compound 0.316 µM, first compound 1 µM
[17] = second compound 0.316 µM, first compound 3.16 µM
[18] = second compound 0.316 µM, first compound 10 µM
[19] = second compound 1 µM, first compound 0.0316 µM
[20] = second compound 1 µM, first compound 0.1 µM
[21] = second compound 1 µM, first compound 0.316 µM
[22] = second compound 1 µM, first compound 1 µM
[23] = second compound 1 µM, first compound 3.16 µM
[24] = second compound 1 µM, first compound 10 µM
[25] = second compound 3.16 µM, first compound 0.0316 µM
[26] = second compound 3.16 µM, first compound 0.1 µM
[27] = second compound 3.16 µM, first compound 0.316 µM
[28] = second compound 3.16 µM, first compound 1 µM
[29] = second compound 3.16 µM, first compound 3.16 µM
[30] = second compound 3.16 µM, first compound 10 µM
[31] = second compound 10 µM, first compound 0.0316 µM
[32] = second compound 10 µM, first compound 0.1 µM
[33] = second compound 10 µM, first compound 0.316 µM
[34] = second compound 10 µM, first compound 1 µM
[35] = second compound 10 µM, first compound 3.16 µM
[36] = second compound 10 µM, first compound 10 µM
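Note: spheroids exposed to compounds for seven days.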
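Throughout, for viability, T/C: 100% = DMSO vehicle control viability.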

**Q.** Which IC50 (second compound 0.0316 µM) does the source give for `CC1COCCN1c1cc(C2(O)CC3CCC(C2)O3)c2cnn(-c3ccn[nH]3)c2n1` (centres undefined) + Nc1ccc(C#CCN(C(=O)Cc2ncc(C(F)(F)F)cc2C(F)(F)F)c2ccc(F)cc2)nn1 here?
**A.** The IC50 was greater than 10 µM.

**Q.** And the IC50 (second compound 0.1 µM)?
**A.** Its IC50 is greater than 10 µM.

**Q.** What about the IC50 (second compound 0.316 µM) of the same molecule?
**A.** Its IC50 is greater than 10 µM.

**Q.** And the IC50 (second compound 1 µM)?
**A.** The IC50 was greater than 10 µM.

**Q.** What about the IC50 (second compound 3.16 µM) of the same molecule?
**A.** Its IC50 is greater than 10 µM.

**Q.** And the IC50 (second compound 10 µM)?
**A.** Its IC50 is greater than 10 µM.

**Q.** And the viability, T/C [1]?
**A.** Its viability, T/C is 103%.

**Q.** What about the viability, T/C [2] of the same molecule?
**A.** Its viability, T/C is 92.9%.

**Q.** And the viability, T/C [3]?
**A.** Its viability, T/C is 83%.

**Q.** And the viability, T/C [4]?
**A.** The viability, T/C was 78.6%.

**Q.** And the viability, T/C [5]?
**A.** Its viability, T/C is 65.9%.

**Q.** What about the viability, T/C [6] of the same molecule?
**A.** The viability, T/C was 60.5%.

**Q.** What about the viability, T/C [7] of the same molecule?
**A.** Its viability, T/C is 111%.

**Q.** And the viability, T/C [8]?
**A.** The viability, T/C was 96.5%.

**Q.** And the viability, T/C [9]?
**A.** The viability, T/C was 88%.

**Q.** And the viability, T/C [10]?
**A.** The viability, T/C was 76.3%.

**Q.** And the viability, T/C [11]?
**A.** Its viability, T/C is 69%.

**Q.** What about the viability, T/C [12] of the same molecule?
**A.** The viability, T/C was 56.3%.

**Q.** What about the viability, T/C [13] of the same molecule?
**A.** The viability, T/C was 99.4%.

**Q.** What about the viability, T/C [14] of the same molecule?
**A.** The viability, T/C was 96.7%.

**Q.** And the viability, T/C [15]?
**A.** The viability, T/C was 76.7%.

**Q.** And the viability, T/C [16]?
**A.** Its viability, T/C is 72.4%.

**Q.** And the viability, T/C [17]?
**A.** Its viability, T/C is 70.3%.

**Q.** What about the viability, T/C [18] of the same molecule?
**A.** Its viability, T/C is 54.5%.

**Q.** What about the viability, T/C [19] of the same molecule?
**A.** The viability, T/C was 106%.

**Q.** And the viability, T/C [20]?
**A.** The viability, T/C was 95.3%.

**Q.** And the viability, T/C [21]?
**A.** Its viability, T/C is 84%.

**Q.** And the viability, T/C [22]?
**A.** Its viability, T/C is 70.5%.

**Q.** What about the viability, T/C [23] of the same molecule?
**A.** The viability, T/C was 66.4%.

**Q.** And the viability, T/C [24]?
**A.** The viability, T/C was 49.5%.

**Q.** And the viability, T/C [25]?
**A.** Its viability, T/C is 104%.

**Q.** What about the viability, T/C [26] of the same molecule?
**A.** Its viability, T/C is 87%.

**Q.** And the viability, T/C [27]?
**A.** Its viability, T/C is 86.4%.

**Q.** And the viability, T/C [28]?
**A.** Its viability, T/C is 66.6%.

**Q.** What about the viability, T/C [29] of the same molecule?
**A.** The viability, T/C was 62.4%.

**Q.** And the viability, T/C [30]?
**A.** Its viability, T/C is 58.6%.

**Q.** What about the viability, T/C [31] of the same molecule?
**A.** The viability, T/C was 106%.

**Q.** And the viability, T/C [32]?
**A.** Its viability, T/C is 91.2%.

**Q.** And the viability, T/C [33]?
**A.** The viability, T/C was 78.3%.

**Q.** What about the viability, T/C [34] of the same molecule?
**A.** Its viability, T/C is 65.1%.

**Q.** What about the viability, T/C [35] of the same molecule?
**A.** The viability, T/C was 58.9%.

**Q.** What about the viability, T/C [36] of the same molecule?
**A.** Its viability, T/C is 56.9%.

**Q.** What does the source list for `CCc1cc2c(N3CCc4c(cc(Cn5ccnc5)cc4-c4cn(C)nc4C(F)(F)F)C3=O)cc(C)nc2c(OC)n1` + Nc1ccc(C#CCN(C(=O)Cc2ncc(C(F)(F)F)cc2C(F)(F)F)c2ccc(F)cc2)nn1?
**A.** IC50 (second compound 0.0316 µM): > 10 µM; IC50 (second compound 0.1 µM): > 10 µM; IC50 (second compound 0.316 µM): > 10 µM; IC50 (second compound 1 µM): > 10 µM; IC50 (second compound 3.16 µM): > 10 µM; IC50 (second compound 10 µM): > 10 µM; viability, T/C [1]: 102%; viability, T/C [2]: 106%; viability, T/C [3]: 107%; viability, T/C [4]: 108%; viability, T/C [5]: 113%; viability, T/C [6]: 108%; viability, T/C [7]: 120%; viability, T/C [8]: 103%; viability, T/C [9]: 103%; viability, T/C [10]: 101%; viability, T/C [11]: 112%; viability, T/C [12]: 102%; viability, T/C [13]: 102%; viability, T/C [14]: 98.9%; viability, T/C [15]: 99.9%; viability, T/C [16]: 101%; viability, T/C [17]: 113%; viability, T/C [18]: 98.8%; viability, T/C [19]: 112%; viability, T/C [20]: 95.8%; viability, T/C [21]: 99.3%; viability, T/C [22]: 105%; viability, T/C [23]: 98.5%; viability, T/C [24]: 98.3%; viability, T/C [25]: 109%; viability, T/C [26]: 116%; viability, T/C [27]: 88.3%; viability, T/C [28]: 95.3%; viability, T/C [29]: 103%; viability, T/C [30]: 108%; viability, T/C [31]: 107%; viability, T/C [32]: 94.6%; viability, T/C [33]: 95.6%; viability, T/C [34]: 91.8%; viability, T/C [35]: 98.7%; viability, T/C [36]: 97.9%
